Measurements reported in patent US20100022639A1, “Methods of Inducing Weight Loss” (The Johns Hopkins University School of Medicine Licensing …, priority 2000, published 2010).

How the values were obtained:
serum glucose [1] = assay: Serum glucose in ob/ob mice; type: in vivo; conditions: 2 weeks treatment, n=3
Experimental: (§1) In addition to obesity, ob/ob mice also develop overt diabetes with significant elevation of blood glucose. C-75 corrected the hyperglycemia observed in vehicle treated mice with a nearly 3-fold reduction in mean serum glucose (FIG. 4A). Male ob/ob mice (n=3) were treated with C-75 or vehicle for 2 weeks (FIGS. 3B and C) and compared with age matched, untreated c57BL/6j mice (+/+). […] The normalization of blood glucose occurred from the profound weight loss in the ob/ob mice as acute treatment of normal mice with C-75 had no effect on serum other than that resulting from inhibition of feeding (FIG. 4B). Male BALB/c mice (n=7) were fasted for 24 hours or injected IP with 30 mg/kg C-75 or RPMI vehicle and allowed free access to food for 24 hours. In both cases, serum was collected at death and assayed for glucose: RefLab™ GLU (Medical Analysis Systems, Inc., Camarillo, Calif.). […] Both panels are representative of 2 experiments.

[2] = Necropsy, histology, plasma alanine aminotransferase and tolerability in treated mice; type: in vivo
Text: (§2) Alternatively, the signal from the FAS target tissue to the hypothalamus may be mediated by a humoral signal. This FAS-associated signal appears to be independent of the systemic release of the known feeding inhibitory hormones leptin and insulin, and the pro-inflammatory cytokines tumor necrosis factor-α and interleukin-1β. Nor is it reversed by administration of dexamethasone, a synthetic glucocorticoid.
The effect of C-75 treatment on feeding behavior and body weight in mice is both rapid and dramatic. A single treatment leads to the loss of as much as 20% of total body weight within 24 hours (FIG. 1.2A). This weight loss occurs in a dose dependent manner and persists for a duration that increases with dose. In all cases, treated animals recover lost body weight after the effect of the drug has dissipated, arguing against induction of a persistent wasting.

feeding behavior [3] = assay: Food intake after a single IP injection (metabolic cages); type: in vivo, BALB/c mice; conditions: 15 mg/kg, first 24 hours
Experimental: Male BALB/c mice 19-22 g were weighed, treated by a single intra peritoneal (I.P.) injection and housed in metabolic cages. Body weight (FIG. 1.2A) and food intake (FIG. 1.2B) were monitored at 24 hour intervals.
Inhibitors of fatty acid synthesis would be expected to prevent triglyceride accumulation due to inhibition of de novo fatty acid synthesis and impact body weight in this manner. […] However, the dramatic C-75-induced weight loss cannot be accounted for by a blockade of fatty acid/triglyceride biosynthesis. Rather, the weight loss observed in response to C-75 treatment results primarily from an inhibition of feeding. The loss of adipose mass was accompanied by a reduction of lean body mass typical of that observed in fasting. Administration of 15 mg/kg body weight led to a greater than 90% reduction in food intake over the first 24 hours (FIG. 1.2B). Feeding behavior then returned to normal progressively over a 48-72 hour period as the drug effect dissipated. The role of feeding inhibition in C-75 induced weight loss was confirmed by studies in which forced feeding of the drug treated animals largely reversed the observed weight loss.

[4] = tested on: neuropeptide Y (NPY) mRNA; assay: Northern blot of hypothalamic NPY mRNA; type: in vivo, BALB/c mice; conditions: 30 mg/kg C-75, 24 hours
Text: The control of body weight is integrated in the hypothalamus by a coordinated group of neuropeptides that monitor adiposity and feeding status and regulate feeding and energy utilization. A central regulator in this process is neuropeptide Y (NPY) (loftus, 1999, Sem. Cell. Dev. Biol., 10: 11). In the arcuate nucleus, the level of NPY increases in the fasted state (Schwartz, et al., 1998, Endocrinology, 139:2629), acting as a potent stimulus of feeding (O'Shea, et al., 1997, Endocrinology, 138:196-202). To ascertain whether C-75 might alter NPY regulation in the hypothalamus, the expression of NPY was examined by northern blot analysis of hypothalamic tissue microdissected from the brains of the fed, fasted and C-75-treated mice shown in FIG. 2A.
The hypothalamic region was microdissected from the brains of mice in FIG. 2A and total RNA was isolated. RNA was subjected to northern blot analysis using random primed probes (Feinberg, et al., 1983, Anal. Biochem., 132:6) for NPY and S26 (as a loading control). Tissue was extracted for total RNA as described, P. Chomczynski and N. Sacchi, Anal. Biochem. 162, 156(1987). 15 μg of total RNA was subjected to Northern blot analysis as described, T. Brown, K. Mackey, in Current Protocols in Molecular Biology, F. Ausubel, et al., Eds. (John Wiley and Sons, New York, 1997) pp. 4.9.1-4.9.16.

[5] = Body weight of ob/ob mice over two week treatment; type: in vivo; conditions: 22 mg/kg IP every third day, two weeks
Text: The magnitude of this effect is readily evident by inspection of representative C-75 and control treated ob/ob mice.

[6] = Weight loss in mice lacking IL-1r and TNFαr1a receptors; conditions: mouse, in vivo
Text: as §2

serum glucose [7] = assay: Serum glucose in wild-type mice, acute treatment; type: in vivo, BALB/c mice; conditions: 30 mg/kg IP, 24 hours, n=7
Experimental: as §1

feeding behavior [8] = assay: Feeding interval in 24 hour fasted mice; type: in vivo; conditions: 30 mg/kg IP, within 20 minutes of treatment
Experimental: Mice were fasted for 24 hours to induce voracious feeding. Initial feeding interval (time in seconds between food presentation and initiation of feeding) was measured in naive mice (pretreat). Mice were then treated by I.P. injection of 30 mg/kg C-75 or RPMI vehicle and feeding interval determined at 20, 40 and 60 minutes post-injection. Observation was terminated if no feeding was initiated within 1000 see (experimental cut off). Times represent mean +/−SEM, (n=4).
Prior to treatment, all animals fed ravenously within 3 minutes of being offered food.

hepatic malonyl-CoA = assay: Hepatic malonyl-CoA level after dextrose gavage and IP C-75; type: in vivo, BALB/c mice; conditions: 20 mg/kg IP, one hour post-treatment, after 2 g/kg dextrose
Experimental: Male BALB/c mice (4 per group) were given 2 g/kg dextrose by oral gavage. After 15 min mice were injected IP with 20 mg/kg C-75 or RPMI vehicle. One hour post-treatment, livers were rapidly removed, frozen and pulverized in liquid nitrogen, HC104 extracted and assayed for malonyl-CoA [J. D. McGarry, M. J. Stark, D. W. Foster., J. Biol. Chem 253, 8291 (1978)]. Intraperitoneal injection of mice with C-75 leads to a 95% reduction in ^14C-acetate incorporation into fatty acids and to a 110% increase in the level of hepatic malonyl-CoA, the principal substrate of FAS. Experiments described in panels B and C were repeated twice.

C=C1C(=O)OC(CCCCCCCC)C1C(=O)O (stereo not drawn) [C-75]
reduction in mean serum glucose (serum glucose [1]): ~3 fold
tolerability in mice ([2]; single IP treatment): well tolerated
histological analysis of tissues from treated mice ([2]; single IP treatment (not shown)): no indication of adverse pathology
necropsy and histological analysis of all major organs ([2]; treated mice): no adverse pathology
plasma alanine aminotransferase activity ([2]; treated mice): unchanged
reduction in food intake (feeding behavior [3]): greater than 90%
level of hypothalamic NPY mRNA [4]: even lower than that of the fed controls
body weight of ob/ob mice [5]: substantial reduction in the body weight
weight loss in mice lacking IL-1r and TNFαr1a receptors [6]: weight loss was observed
effect on serum glucose in wild-type mice (serum glucose [7]): no effect on serum glucose beyond that attributable to fasting
feeding initiation in fasted mice (feeding behavior [8]): lost all interest in feeding
increase in the level of hepatic malonyl-CoA (hepatic malonyl-CoA): 110%
